In paper PMC12064818, “A general assay platform to study protein pharmacology using ligand-dependent structural dynamics” (Nature Communications, 2025):

How the values were obtained:
P. pyralis FLuc = P. pyralis FLuc (Photinus pyralis, UniProt P08659); assay: FLuc enzymatic luminescence assay, P. pyralis FLuc; format: biochemical; settings: FLuc enzymatic assay; for Efficacy (%) FLuc E: Clade S follow-up; for IC50: read-out: IC50 or SDR50 (mM) FLuc E
Protocol: The enzyme activity of FLuc-N-HiBiT, FLuc-C-HiBiT, and FLuc-C-NLuc was measured similar to P. pyralis firefly luciferase (FLuc) as previously described. […] Compounds and controls were added to each plate as described in Supplementary Data 8 with a Hornet pintool system (Wako Automation). Compounds were incubated with respective enzymes for 30–60 min at room temperature protected from light and covered by solid metal lid to prevent evaporation. […] Luciferin was incubated with FLuc enzyme for 5 min before FLuc activity was then measured on a ViewLux CCD imager (PerkinElmer), with exposure times up to ten seconds with medium to high gain settings. Data were normalized to average no enzyme control as 100% enzyme inhibition and average DMSO neutral control. See Supplementary Table 4 for additional details.
Assays were run in the presence (solid symbols) or absence
(open symbols) of 10 µM ATP. Corresponding SMIL E S for NC GC IDs and source data are provided in
Supplementary Data 3 and as a Source Data file. 10
Supplementary Table 4. Protocol for Firefly luciferase (FLuc) and NanoLuc (NLuc) enzymatic
Supplementary Table 4: Protocol for Firefly luciferase (FLuc) and NanoLuc (NLuc) enzym atic lum inescence assay
Firefly luciferase (FLuc) enzym atic lum inescence assay
Sequence Param eter Value Description
No enzym e control (colum n 1) and enzym e solution (1- 10 nM FLuc enzym e) in FLuc assay
1 Reagent 4 µLbuffer; white/solid bottom , m edium bind, high base plates (Greiner), dispensed with BioRaptr
com pounds transferred to respective colum ns with Pintool
2b Test Com pounds 23 nLconcentration range) in colum ns 5- 48; com pounds transferred to respective wells with
3 Incubation 30 m in Incubate enzym e + com pounds at am bient tem p for 30 m in, protected from light
4 Reagent 3 µLAdd 3 µL of D-luciferin substrate solution to each well (final concentration 10 µM); dispensed
(§1) 5 Detector ViewLux Read plate lum inescence (Exposure = 1- 10 sec; Gain = Medium -high; Speed = Slow;
Dispensing solution was diluted in 1X PBS, pH 7.4. […]

[1] = target: FLuc-C-HiBiT (firefly luciferase) (Photinus pyralis, UniProt P08659, form not given/L550V); assay: SDR assay, FLuc-C-HiBiT; settings: SDR max. response, clade S
Chain of FLuc-C-HiBiT (firefly luciferase) (P08659 2-550 L550V, form open): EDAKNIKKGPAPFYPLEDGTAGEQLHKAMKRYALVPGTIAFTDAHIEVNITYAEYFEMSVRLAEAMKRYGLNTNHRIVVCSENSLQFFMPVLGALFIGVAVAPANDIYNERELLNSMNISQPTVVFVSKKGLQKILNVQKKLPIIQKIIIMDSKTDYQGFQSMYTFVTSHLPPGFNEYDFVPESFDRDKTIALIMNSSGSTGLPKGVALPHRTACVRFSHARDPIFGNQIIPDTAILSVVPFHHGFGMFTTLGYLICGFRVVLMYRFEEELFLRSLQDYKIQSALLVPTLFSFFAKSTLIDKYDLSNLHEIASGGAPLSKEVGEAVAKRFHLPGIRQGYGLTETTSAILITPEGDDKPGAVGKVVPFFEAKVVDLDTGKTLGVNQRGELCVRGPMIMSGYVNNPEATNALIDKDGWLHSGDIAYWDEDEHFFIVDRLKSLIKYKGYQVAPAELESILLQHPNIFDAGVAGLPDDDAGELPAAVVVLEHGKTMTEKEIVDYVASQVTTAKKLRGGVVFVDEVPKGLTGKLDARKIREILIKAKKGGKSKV

[2] = target: FLuc-C-NLuc (firefly luciferase) (Photinus pyralis, UniProt P08659, form not given/L550V); assay: SDR assay, FLuc-C-NLuc; settings: - ATP
Chain of FLuc-C-NLuc (firefly luciferase) (P08659 2-550 L550V, form open): as above

NLuc = target: T1, NLuc (Oplophorus gracilirostris, UniProt Q9GV45, A31E/A60N/A81I/F95D/I117V/K70R/L54V/L99Q/M102K/N193R/P142E/Q151K/Q38R/Q45L/V71I/Y165I); format: biochemical; settings: - ATP
T1 construct: His tag (inferred from IMAC purification); made in house; host or cells: E. coli
T1 sequence (Q9GV45 other isoform, or with tags, fused parts or gaps with the stated changes): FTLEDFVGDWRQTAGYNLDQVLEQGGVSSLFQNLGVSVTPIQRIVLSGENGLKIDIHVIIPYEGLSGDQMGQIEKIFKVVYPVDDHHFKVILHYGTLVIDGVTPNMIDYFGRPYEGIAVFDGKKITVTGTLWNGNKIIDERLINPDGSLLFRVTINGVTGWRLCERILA
Protocol: Compounds and controls were added to plates as described in Supplementary Data 8. Nano-Glo luciferase assay reagent (Promega) was prepared fresh according to manufacturer’s protocol, filtered and added at 3 μL per well across assay plates with a BioRaptr2 dispenser. Enzyme was incubated with Nano-Glo reagent for 10 min and NLuc luminescence was read on a ViewLux CCD imager (PerkinElmer), with 1 s exposure with medium gain and 2x binning. Data were normalized to average no enzyme control as 100% enzyme inhibition and average DMSO neutral control. See Supplementary Table 4 for additional details.
Supplementary Table 4. […]
Sequence Param eter Value Description […]
as §1
Dispensing solution was diluted in 1X PBS, pH 7.4.
NanoLuc luciferase (NLuc) enzym atic lum inescence assay […]
Nano-Glo luciferase assay reagent (Prom ega, Cat # N1120) prepared according to m anufacturer’s recom m endations,
4 com ponents stored at -30 °C until use, and reagent prepared fresh for each assay.
syringe filter prior to dispense.

Chain of P. pyralis FLuc (P08659 whole entry): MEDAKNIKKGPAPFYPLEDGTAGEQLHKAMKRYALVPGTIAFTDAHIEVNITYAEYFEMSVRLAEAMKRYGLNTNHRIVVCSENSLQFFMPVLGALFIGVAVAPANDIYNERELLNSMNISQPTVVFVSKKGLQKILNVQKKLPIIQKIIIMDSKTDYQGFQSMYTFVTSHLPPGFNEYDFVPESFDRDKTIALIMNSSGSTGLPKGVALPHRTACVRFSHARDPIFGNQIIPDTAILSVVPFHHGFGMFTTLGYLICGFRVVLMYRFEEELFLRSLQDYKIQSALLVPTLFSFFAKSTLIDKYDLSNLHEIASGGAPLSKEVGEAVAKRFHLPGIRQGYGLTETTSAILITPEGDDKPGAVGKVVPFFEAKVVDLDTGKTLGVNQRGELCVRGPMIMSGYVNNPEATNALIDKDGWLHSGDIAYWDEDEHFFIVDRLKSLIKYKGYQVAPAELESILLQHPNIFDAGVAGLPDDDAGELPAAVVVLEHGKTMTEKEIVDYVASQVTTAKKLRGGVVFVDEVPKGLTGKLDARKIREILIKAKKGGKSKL

## O=C(NC1CCCCCC1)C1CCN(C(=O)c2ncn3c2COC(c2ccccc2)C3)CC1 (stereo not shown) [NCGC00449769-01]
P. pyralis FLuc
  pIC50 or pSDR50 FLuc E: 5.26
  Efficacy (%) FLuc E: -80.74%
  IC50: 0.00555 mM
[1]
  % Activity (max response, + ATP): 369.53%
  % Activity (max response, - ATP): 0.00%
[2]
  Efficacy (%) FLuc-C-NLuc SDR (-ATP): 0.00%
NLuc
  Efficacy (%) NLuc (- ATP): 0.00%

## O=C(NC1CCCCCCC1)C1CCN(C(=O)c2ncn3c2COC(c2ccccc2)C3)CC1 (stereo not shown) [NCGC00449770-01]
P. pyralis FLuc
  pIC50 or pSDR50 FLuc E: 5.16
  Efficacy (%) FLuc E: -92.12%
  IC50: 0.00699 mM
[1]
  % Activity (max response, + ATP): 338.48%
  % Activity (max response, - ATP): 0.00%
[2]
  Efficacy (%) FLuc-C-NLuc SDR (-ATP): 0.00%
NLuc
  Efficacy (%) NLuc (- ATP): 0.00%

## O=C(NCCC1=CCCCC1)C1CCN(C(=O)c2ncn3c2COC(c2ccccc2)C3)CC1 (stereo not shown) [NCGC00449771-01]
P. pyralis FLuc
  pIC50 or pSDR50 FLuc E: 5.56
  Efficacy (%) FLuc E: -97.83%
  IC50: 0.00278 mM
[1]
  % Activity (max response, + ATP): 338.43%
  % Activity (max response, - ATP): 0.00%
[2]
  Efficacy (%) FLuc-C-NLuc SDR (-ATP): 0.00%
NLuc
  Efficacy (%) NLuc (- ATP): 0.00%

## O=C(NCc1ccccc1)C1CCN(C(=O)c2ncn3c2COC(c2ccccc2)C3)CC1 (stereo not shown) [NCGC00449773-01]
P. pyralis FLuc
  pIC50 or pSDR50 FLuc E: 5.56
  Efficacy (%) FLuc E: -92.80%
  IC50: 0.00278 mM
[1]
  % Activity (max response, + ATP): 344.70%
  % Activity (max response, - ATP): 0.00%
[2]
  Efficacy (%) FLuc-C-NLuc SDR (-ATP): 0.00%
NLuc
  Efficacy (%) NLuc (- ATP): 0.00%

## Cc1ccc(CNC(=O)C2CCN(C(=O)c3ncn4c3COC(c3ccccc3)C4)CC2)cc1 (stereo not shown) [NCGC00449774-01]
P. pyralis FLuc
  pIC50 or pSDR50 FLuc E: 5.01
  Efficacy (%) FLuc E: -84.01%
  IC50: 0.00988 mM
[1]
  % Activity (max response, + ATP): 316.62%
  % Activity (max response, - ATP): 0.00%
[2]
  Efficacy (%) FLuc-C-NLuc SDR (-ATP): 0.00%
NLuc
  Efficacy (%) NLuc (- ATP): 0.00%

## CCc1ccc(CNC(=O)C2CCN(C(=O)c3ncn4c3COC(c3ccccc3)C4)CC2)cc1 (stereo not shown) [NCGC00449775-01]
P. pyralis FLuc
  pIC50 or pSDR50 FLuc E: 5.01
  Efficacy (%) FLuc E: -61.62%
  IC50: 0.00988 mM
[1]
  % Activity (max response, + ATP): 294.78%
  % Activity (max response, - ATP): 0.00%
[2]
  Efficacy (%) FLuc-C-NLuc SDR (-ATP): 0.00%
NLuc
  Efficacy (%) NLuc (- ATP): 0.00%

## COc1cccc(CNC(=O)C2CCN(C(=O)c3ncn4c3COC(c3ccccc3)C4)CC2)c1 (stereo not shown) [NCGC00449777-01]
P. pyralis FLuc
  pIC50 or pSDR50 FLuc E: 5.26
  Efficacy (%) FLuc E: -78.20%
  IC50: 0.00555 mM
[1]
  % Activity (max response, + ATP): 322.03%
  % Activity (max response, - ATP): 0.00%
[2]
  Efficacy (%) FLuc-C-NLuc SDR (-ATP): 0.00%
NLuc
  Efficacy (%) NLuc (- ATP): 0.00%

## COc1ccc(CNC(=O)C2CCN(C(=O)c3ncn4c3COC(c3ccccc3)C4)CC2)cc1 (stereo not shown) [NCGC00449778-01]
P. pyralis FLuc
  pIC50 or pSDR50 FLuc E: 5.01
  Efficacy (%) FLuc E: -88.62%
  IC50: 0.00988 mM
[1]
  % Activity (max response, + ATP): 301.65%
  % Activity (max response, - ATP): 0.00%
[2]
  Efficacy (%) FLuc-C-NLuc SDR (-ATP): 0.00%
NLuc
  Efficacy (%) NLuc (- ATP): 0.00%

## O=C(NCc1ccc(F)cc1)C1CCN(C(=O)c2ncn3c2COC(c2ccccc2)C3)CC1 (stereo not shown) [NCGC00449784-01]
P. pyralis FLuc
  pIC50 or pSDR50 FLuc E: 5.26
  Efficacy (%) FLuc E: -93.60%
  IC50: 0.00555 mM
[1]
  % Activity (max response, + ATP): 341.35%
  % Activity (max response, - ATP): 0.00%
[2]
  Efficacy (%) FLuc-C-NLuc SDR (-ATP): 0.00%
NLuc
  Efficacy (%) NLuc (- ATP): 0.00%

## O=C(NCc1ccc(F)cc1F)C1CCN(C(=O)c2ncn3c2COC(c2ccccc2)C3)CC1 (stereo not shown) [NCGC00449785-01]
P. pyralis FLuc
  pIC50 or pSDR50 FLuc E: 5.06
  Efficacy (%) FLuc E: -69.49%
  IC50: 0.0088 mM
[1]
  % Activity (max response, + ATP): 291.32%
  % Activity (max response, - ATP): 0.00%
[2]
  Efficacy (%) FLuc-C-NLuc SDR (-ATP): 0.00%
NLuc
  Efficacy (%) NLuc (- ATP): 0.00%
